{
  "source": "patent US4317824A",
  "about": "“Derivatives of quinoxaline-1,4-dioxides” (Abic, Ltd., priority 1976, dated 1982)",
  "key": {"Salm. Typh.": {"test_system": "Salm. Typh.", "assay": "antimicrobial activity, minimal inhibitory concentration, Salm. Typh.", "format": "cell-based", "conditions": "read-out: minimal inhibitory concentration", "experimental": "(§1) The antimicrobial activity of some compounds according to the present invention was measured and the results are shown in the following Tables. The activity is indicated as the minimal inhibitory concentration in μg/ml."}, "E. Coli [1]": {"test_system": "E. Coli", "assay": "antimicrobial activity, minimal inhibitory concentration, E. Coli", "format": "cell-based", "conditions": "Escherichia coli", "experimental": "as §1"}, "St. aur": {"test_system": "St. aur", "assay": "Systemic St. aur infection in mice", "format": "in vivo", "conditions": "systemic St. aur infection, 2,5 mg × 2 per day", "experimental": "(§2) Some compounds of general formula Id were tested also in vivo."}, "E. Coli [2]": {"test_system": "E. Coli", "assay": "Systemic E. Coli infection in mice", "format": "in vivo", "conditions": "systemic E. Coli infection, 1,25 mg × 2 per day", "experimental": "as §2"}, "Staph. Aur.": {"test_system": "Staph. Aur.", "assay": "antimicrobial activity, minimal inhibitory concentration, Staph. Aur.", "format": "cell-based", "experimental": "as §1"}, "[3]": {"assay": "growth promotion experiment with male turkeys for 4 weeks", "format": "in vivo", "conditions": "P<0.001", "excerpt": "The results were statistically significant (P<0.001)."}, "E. Coli [4]": {"test_system": "E. Coli", "assay": "U. Tract infections in mice (E. Coli)", "format": "in vivo", "conditions": "U. Tract infections (E. Coli), 2,5 mg × 10 days", "experimental": "as §2"}, "Acute oral LD50 in mice": {"assay": "Acute oral LD50 in mice", "conditions": "mouse, in vivo"}, "Mycoplasma gallisept": {"test_system": "Mycoplasma gallisept", "assay": "antimicrobial activity, minimal inhibitory concentration, Mycoplasma gallisept", "format": "cell-based", "experimental": "as §1"}, "B. Subtilis": {"test_system": "B. Subtilis", "assay": "antimicrobial activity, minimal inhibitory concentration, B. Subtilis", "format": "cell-based", "conditions": "Bacillus subtilis", "experimental": "as §1"}, "[5]": {"assay": "Acute oral LD50 in chicks", "conditions": "chicken, in vivo"}},
  "data": [
    {"smiles": "CCOC(=O)NNC(=NO)c1c[n+]([O-])c2ccccc2[n+]1[O-]", "note": "[Example 35, 2-(carbazinic acid ethyl ester)-carboxaldoxime-quinoxaline-1,4-dioxide]", "values": [
      {"measurement": "MIC", "setting": "Salm. Typh.", "result": "10 to 25", "unit": "µg/mL"},
      {"measurement": "MIC", "setting": "E. Coli [1]", "result": "40 to 50", "unit": "µg/mL"},
      {"measurement": "Protection", "setting": "St. aur", "result": "+ (indicates protection >80%)"},
      {"measurement": "Protection", "setting": "E. Coli [2]", "result": "+ (indicates protection >80%)"},
      {"measurement": "MIC", "setting": "Staph. Aur.", "result": 10, "unit": "µg/mL"},
      {"measurement": "increase in weight gain", "setting": "[3]; 30 g/ton in the feed", "result": 18.7, "unit": "%"},
      {"measurement": "increase in weight gain", "setting": "[3]; 50 g/ton in the feed", "result": 18.5, "unit": "%"},
      {"measurement": "increase in weight gain", "setting": "[3]; 75 g/ton in the feed", "result": 16, "unit": "%"},
      {"measurement": "Protection", "setting": "E. Coli [4]", "result": "+ (indicates protection >80%)"},
      {"measurement": "LD50", "setting": "Acute oral LD50 in mice", "result": 4950, "unit": "mg/kg"},
      {"measurement": "MIC", "setting": "Mycoplasma gallisept", "result": "10 to 25", "unit": "µg/mL"},
      {"measurement": "MIC", "setting": "B. Subtilis", "result": 10, "unit": "µg/mL"},
      {"measurement": "LD50", "setting": "[5]", "result": 1500, "unit": "mg/kg"}
    ]}
  ]
}
